Experimental findings from ChEMBL document CHEMBL4118189, “Discovery of novel N-hydroxy-2-arylisoindoline-4-carboxamides as potent and selective inhibitors of HDAC11” (Bioorg Med Chem Lett, 2018) are described below.

In experiment [1] the target is T1, Histone deacetylase 11 (Homo sapiens, UniProt Q96DB2).
T1 sequence (Q96DB2 whole entry): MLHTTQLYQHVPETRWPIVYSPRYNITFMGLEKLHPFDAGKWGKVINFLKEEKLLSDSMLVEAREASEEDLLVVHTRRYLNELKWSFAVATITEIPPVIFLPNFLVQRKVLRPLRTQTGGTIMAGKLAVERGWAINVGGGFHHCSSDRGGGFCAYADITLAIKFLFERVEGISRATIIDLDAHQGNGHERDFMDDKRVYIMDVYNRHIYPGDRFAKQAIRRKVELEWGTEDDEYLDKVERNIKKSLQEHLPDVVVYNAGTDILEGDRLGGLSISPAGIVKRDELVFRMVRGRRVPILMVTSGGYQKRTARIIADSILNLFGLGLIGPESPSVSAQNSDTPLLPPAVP
As to the kind of experiment: Inhibition of full length recombinant human HDAC11 expressed in baculoviral expression system using FAM-RHKK as substrate by electrophoretic mobility shift assay.

Experiment [2] has as its target T1, Histone deacetylase 11. As to the kind of experiment: Inhibition of NanoLuc-tagged HDAC11 (unknown origin) by BRET assay.
In experiment [3] the target is Histone deacetylase 3 (Homo sapiens, UniProt O15379). As to the kind of experiment: Inhibition of full length recombinant human HDAC3 using fluorescent-labeled peptide as substrate by electrophoretic mobility shift assay.
Experiment [4] deals with T2, Histone deacetylase 7 (Homo sapiens, UniProt Q8WUI4).
T2 sequence (Q8WUI4 whole entry): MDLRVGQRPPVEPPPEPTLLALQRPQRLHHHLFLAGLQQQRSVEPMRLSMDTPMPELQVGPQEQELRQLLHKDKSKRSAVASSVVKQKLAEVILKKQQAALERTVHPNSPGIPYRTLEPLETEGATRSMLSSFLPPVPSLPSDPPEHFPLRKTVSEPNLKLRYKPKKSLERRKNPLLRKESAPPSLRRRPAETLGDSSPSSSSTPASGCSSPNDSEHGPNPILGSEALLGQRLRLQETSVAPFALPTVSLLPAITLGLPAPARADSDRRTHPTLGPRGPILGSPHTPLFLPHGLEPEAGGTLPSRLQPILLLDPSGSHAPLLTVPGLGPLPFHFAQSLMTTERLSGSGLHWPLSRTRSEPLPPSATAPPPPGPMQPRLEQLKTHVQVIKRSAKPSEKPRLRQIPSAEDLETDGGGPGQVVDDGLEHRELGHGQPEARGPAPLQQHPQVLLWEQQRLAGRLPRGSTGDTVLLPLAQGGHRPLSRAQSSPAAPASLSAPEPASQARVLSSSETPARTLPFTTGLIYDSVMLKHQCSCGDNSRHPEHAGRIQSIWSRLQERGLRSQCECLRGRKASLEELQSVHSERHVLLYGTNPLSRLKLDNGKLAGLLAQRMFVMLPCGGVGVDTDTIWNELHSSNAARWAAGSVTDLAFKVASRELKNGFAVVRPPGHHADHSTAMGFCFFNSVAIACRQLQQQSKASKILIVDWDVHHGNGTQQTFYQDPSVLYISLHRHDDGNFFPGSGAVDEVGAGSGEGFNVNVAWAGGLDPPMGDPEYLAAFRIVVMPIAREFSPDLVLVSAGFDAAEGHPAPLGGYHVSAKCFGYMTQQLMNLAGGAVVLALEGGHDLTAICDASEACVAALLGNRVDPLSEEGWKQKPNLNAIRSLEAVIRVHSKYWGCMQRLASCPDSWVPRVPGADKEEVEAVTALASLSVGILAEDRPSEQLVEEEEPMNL
As to the kind of experiment: Inhibition of full length recombinant human HDAC7 using fluorescent-labeled peptide as substrate by electrophoretic mobility shift assay.

Experiment [5] has as its target T3, Histone deacetylase 8 (Homo sapiens, UniProt Q9BY41).
T3 sequence (Q9BY41 whole entry): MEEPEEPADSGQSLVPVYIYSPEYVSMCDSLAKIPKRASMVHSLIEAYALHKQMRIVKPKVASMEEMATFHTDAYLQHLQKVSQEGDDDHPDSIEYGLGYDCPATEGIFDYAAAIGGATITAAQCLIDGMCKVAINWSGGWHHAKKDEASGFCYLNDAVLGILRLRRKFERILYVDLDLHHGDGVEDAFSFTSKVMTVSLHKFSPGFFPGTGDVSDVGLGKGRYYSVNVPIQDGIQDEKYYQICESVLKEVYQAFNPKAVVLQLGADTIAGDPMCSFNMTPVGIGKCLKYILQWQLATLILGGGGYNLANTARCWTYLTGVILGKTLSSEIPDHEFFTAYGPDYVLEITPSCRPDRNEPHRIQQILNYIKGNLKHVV
As to the kind of experiment: Inhibition of full length recombinant human HDAC8 using fluorescent-labeled peptide as substrate by electrophoretic mobility shift assay.

The target in experiment [6] is T4, Polyamine deacetylase HDAC10 (Homo sapiens, UniProt Q969S8).
T4 sequence (Q969S8 whole entry): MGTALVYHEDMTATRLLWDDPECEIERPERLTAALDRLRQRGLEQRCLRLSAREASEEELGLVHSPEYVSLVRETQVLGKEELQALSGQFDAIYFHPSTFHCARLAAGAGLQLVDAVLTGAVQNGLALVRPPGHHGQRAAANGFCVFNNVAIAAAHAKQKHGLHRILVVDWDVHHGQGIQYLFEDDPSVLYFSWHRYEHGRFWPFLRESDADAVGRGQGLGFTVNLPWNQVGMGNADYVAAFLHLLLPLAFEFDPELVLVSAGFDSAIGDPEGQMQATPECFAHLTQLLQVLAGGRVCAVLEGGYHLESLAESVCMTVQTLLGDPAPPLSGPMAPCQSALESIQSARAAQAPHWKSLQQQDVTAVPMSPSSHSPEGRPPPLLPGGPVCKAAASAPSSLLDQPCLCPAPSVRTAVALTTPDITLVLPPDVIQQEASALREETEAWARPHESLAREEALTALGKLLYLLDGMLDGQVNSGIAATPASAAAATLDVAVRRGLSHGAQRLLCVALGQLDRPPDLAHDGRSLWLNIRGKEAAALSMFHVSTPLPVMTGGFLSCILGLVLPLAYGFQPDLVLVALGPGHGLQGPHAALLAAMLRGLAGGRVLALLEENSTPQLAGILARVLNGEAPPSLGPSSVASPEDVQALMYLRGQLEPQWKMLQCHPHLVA
Put plainly: Inhibition of full length recombinant human HDAC10 using fluorescent-labeled peptide as substrate by electrophoretic mobility shift assay.

Chain of Histone deacetylase 3 (O15379 whole entry): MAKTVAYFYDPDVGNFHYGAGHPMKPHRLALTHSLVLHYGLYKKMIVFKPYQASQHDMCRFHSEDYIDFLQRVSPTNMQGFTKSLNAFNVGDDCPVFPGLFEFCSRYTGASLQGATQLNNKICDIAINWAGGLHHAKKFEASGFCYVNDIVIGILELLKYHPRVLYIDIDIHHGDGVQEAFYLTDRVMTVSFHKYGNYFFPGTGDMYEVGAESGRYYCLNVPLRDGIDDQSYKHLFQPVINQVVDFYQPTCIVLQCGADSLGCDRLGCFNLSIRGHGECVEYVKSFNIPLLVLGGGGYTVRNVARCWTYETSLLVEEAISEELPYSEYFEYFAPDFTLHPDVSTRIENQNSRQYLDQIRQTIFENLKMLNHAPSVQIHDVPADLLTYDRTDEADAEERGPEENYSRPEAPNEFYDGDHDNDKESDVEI

For the compound `CC1(C)c2cccc(C(N)=O)c2CN1c1cnc(C(F)(F)F)cn1`, the IC50 in experiment [1] is more than 10 µM; in experiment [2], more than 25 µM; in experiment [3], more than 10 µM; in experiment [4], more than 10 µM; in experiment [5] it was more than 10 µM; in experiment [6], more than 10 µM.
